The record followed here is patent EP4692090A1 (Shanghai Fosun Pharmaceutical (Group) Co., Ltd., priority 2023, dated 2024).

The target of one test is T1, ATR kinase (Homo sapiens, UniProt Q13535).
T1 construct: purchased Eurofins 14-953
Nature of the test: Inhibitory effect on ATR kinase activity (Caliper mobility shift, FAM-labeled RAD17 peptide substrate). Format: biochemical. The procedure, abridged:
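Caliper mobility-shift assay with 1 nM ATR, FAM-labeled RAD17 peptide […] and 5 mM ATP in HEPES pH 7.5 with 10 mM MnCl2, run 3 h at 28 °C and stopped with EDTA. Compounds were tested in 10-point 3-fold dilutions from 1 µM. IC50 was fitted from % inhibition of substrate conversion versus blank control.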

The next test has as its system LoVo cells. The test is described as follows: LoVo cell proliferation assay (CellTiter-Glo). The conditions noted are these: Homo sapiens, LoVo, 120 h, maximum concentration 10 µM, 9 concentrations. Format: cell-based. The procedure, abridged:
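LoVo cells, 2,000 per well, were treated after overnight attachment with 9-point 3-fold dilutions from 10 µM for 5 days at 37 °C. Viability was read by CellTiter-Glo luminescence. Inhibition % was taken relative to DMSO control, and IC50 came from the concentration–inhibition curve.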
For orientation: Cellular ATP, detected with luciferase, serves as a proxy for viable cell number.

Setting [1] is: read-out: ATR kinase IC50, 1 nM ATR kinase (Eurofins), 28°C for 3 hours, maximum concentration 1 µM, 10 concentrations.
Setting [2] is: read-out: LoVo IC50 (nM), LoVo cells, 2,000 cells per well, 5 days incubation, CellTiter-Glo.
The mark [3] stands for this setting: 1 nM ATR kinase (Eurofins), 28°C for 3 hours, maximum concentration 1 µM, 10 concentrations, read-out: ATR kinase IC50.
[4] abbreviates: LoVo cells, 2,000 cells per well, 5 days incubation, CellTiter-Glo, read-out: LoVo IC50.

Where two headings read alike, the source gives them in different places. A value given as a limit tells only on which side of the number the result lay.

T1 sequence (Q13535 whole entry): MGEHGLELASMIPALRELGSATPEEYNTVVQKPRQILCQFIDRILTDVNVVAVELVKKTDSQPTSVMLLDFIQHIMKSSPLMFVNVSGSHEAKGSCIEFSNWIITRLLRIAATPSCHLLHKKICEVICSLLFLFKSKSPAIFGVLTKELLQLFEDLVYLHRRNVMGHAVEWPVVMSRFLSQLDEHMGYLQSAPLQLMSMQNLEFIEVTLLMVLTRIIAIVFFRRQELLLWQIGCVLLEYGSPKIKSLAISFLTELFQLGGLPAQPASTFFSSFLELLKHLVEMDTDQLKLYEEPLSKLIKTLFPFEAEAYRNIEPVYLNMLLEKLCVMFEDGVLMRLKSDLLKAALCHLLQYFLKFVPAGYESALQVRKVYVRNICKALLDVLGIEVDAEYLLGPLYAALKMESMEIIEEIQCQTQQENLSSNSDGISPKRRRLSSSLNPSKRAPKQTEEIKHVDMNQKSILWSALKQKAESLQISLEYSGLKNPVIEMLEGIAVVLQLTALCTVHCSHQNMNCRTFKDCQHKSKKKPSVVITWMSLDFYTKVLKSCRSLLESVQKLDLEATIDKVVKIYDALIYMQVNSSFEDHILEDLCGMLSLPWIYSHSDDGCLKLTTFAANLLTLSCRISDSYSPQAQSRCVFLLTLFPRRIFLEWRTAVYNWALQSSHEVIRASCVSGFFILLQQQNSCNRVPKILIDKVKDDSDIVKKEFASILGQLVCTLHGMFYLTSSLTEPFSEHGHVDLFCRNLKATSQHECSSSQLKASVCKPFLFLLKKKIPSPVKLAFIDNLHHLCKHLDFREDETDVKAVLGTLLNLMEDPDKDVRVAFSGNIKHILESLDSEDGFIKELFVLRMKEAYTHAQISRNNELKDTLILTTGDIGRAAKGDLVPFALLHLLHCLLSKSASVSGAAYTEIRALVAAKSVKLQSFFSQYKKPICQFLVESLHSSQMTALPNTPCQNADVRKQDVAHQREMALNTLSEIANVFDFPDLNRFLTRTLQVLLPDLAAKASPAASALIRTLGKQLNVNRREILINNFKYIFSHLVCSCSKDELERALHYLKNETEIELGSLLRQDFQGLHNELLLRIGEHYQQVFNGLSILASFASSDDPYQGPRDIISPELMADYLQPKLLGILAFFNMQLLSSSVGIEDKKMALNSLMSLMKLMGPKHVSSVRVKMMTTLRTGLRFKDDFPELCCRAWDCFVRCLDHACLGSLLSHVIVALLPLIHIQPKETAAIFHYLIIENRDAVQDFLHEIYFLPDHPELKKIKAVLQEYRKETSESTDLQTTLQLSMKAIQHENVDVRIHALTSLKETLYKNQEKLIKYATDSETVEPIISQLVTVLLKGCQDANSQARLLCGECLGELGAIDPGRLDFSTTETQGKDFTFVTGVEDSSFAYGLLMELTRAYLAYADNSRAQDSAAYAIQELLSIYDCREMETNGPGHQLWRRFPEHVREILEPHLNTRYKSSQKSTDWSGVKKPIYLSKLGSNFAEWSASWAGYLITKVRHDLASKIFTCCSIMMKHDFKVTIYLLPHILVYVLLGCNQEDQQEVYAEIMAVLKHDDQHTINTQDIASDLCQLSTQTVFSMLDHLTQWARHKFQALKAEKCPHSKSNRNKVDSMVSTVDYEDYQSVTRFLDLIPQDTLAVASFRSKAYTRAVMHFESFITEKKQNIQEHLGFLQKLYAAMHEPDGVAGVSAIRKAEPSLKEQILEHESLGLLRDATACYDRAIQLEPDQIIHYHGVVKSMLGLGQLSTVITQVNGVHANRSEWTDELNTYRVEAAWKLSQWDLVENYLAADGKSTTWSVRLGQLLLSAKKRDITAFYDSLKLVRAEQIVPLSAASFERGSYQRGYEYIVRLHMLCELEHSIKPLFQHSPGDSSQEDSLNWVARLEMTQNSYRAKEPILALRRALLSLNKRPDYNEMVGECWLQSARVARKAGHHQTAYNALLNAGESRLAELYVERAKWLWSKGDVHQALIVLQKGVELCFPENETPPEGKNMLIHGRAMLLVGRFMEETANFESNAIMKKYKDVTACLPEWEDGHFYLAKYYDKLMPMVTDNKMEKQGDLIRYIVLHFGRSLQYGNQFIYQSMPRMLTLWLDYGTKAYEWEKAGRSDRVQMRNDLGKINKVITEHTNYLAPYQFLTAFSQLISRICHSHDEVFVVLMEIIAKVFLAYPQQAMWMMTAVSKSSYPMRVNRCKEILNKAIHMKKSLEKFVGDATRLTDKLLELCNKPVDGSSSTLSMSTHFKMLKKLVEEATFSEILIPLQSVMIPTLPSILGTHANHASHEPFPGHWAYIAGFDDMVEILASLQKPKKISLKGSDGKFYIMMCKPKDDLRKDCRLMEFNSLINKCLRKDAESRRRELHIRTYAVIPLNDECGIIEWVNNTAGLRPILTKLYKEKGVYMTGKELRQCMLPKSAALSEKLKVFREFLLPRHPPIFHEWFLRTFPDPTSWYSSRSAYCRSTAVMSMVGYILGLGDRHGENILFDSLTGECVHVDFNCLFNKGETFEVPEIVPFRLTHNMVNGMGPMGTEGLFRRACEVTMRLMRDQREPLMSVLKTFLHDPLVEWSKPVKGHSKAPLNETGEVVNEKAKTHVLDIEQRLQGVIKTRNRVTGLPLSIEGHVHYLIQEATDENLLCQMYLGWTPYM
T1 sequence (Q8WXE1 whole entry partner): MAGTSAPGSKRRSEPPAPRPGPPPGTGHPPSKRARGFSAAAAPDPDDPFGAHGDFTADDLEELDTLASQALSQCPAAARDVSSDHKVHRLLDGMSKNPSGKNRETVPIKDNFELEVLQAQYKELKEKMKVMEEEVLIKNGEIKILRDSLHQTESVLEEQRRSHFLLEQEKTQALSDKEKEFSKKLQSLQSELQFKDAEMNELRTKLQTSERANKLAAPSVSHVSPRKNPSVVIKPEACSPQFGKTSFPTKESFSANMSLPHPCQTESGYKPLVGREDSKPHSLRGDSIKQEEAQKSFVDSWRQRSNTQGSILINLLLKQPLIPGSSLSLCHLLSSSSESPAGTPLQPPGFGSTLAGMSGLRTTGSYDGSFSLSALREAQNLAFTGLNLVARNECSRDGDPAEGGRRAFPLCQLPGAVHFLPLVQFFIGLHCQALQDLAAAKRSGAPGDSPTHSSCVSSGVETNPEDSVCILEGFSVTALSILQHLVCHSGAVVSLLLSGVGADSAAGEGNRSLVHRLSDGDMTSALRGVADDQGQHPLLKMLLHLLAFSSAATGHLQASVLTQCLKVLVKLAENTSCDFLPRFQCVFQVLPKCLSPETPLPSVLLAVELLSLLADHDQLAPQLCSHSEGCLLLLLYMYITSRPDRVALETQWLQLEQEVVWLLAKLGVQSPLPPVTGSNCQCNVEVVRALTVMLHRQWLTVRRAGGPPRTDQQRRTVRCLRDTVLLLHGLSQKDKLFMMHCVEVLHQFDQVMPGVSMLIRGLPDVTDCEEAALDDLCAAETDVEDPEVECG

For the molecule `C[C@@H]1COCCN1c1cc2c3c(n1)c(-c1cc[nH]n1)nn3CCC(=O)N2C1CC2(CC(O)C2)C1` (stereo partly drawn) [Compound 97, (R)-6-(6-hydroxyspiro[3.3]hept-2-yl)-4-(3-methylmorpholinyl)-2-(1H-pyrazol-3-yl)-8,9-dihydro-1,3,6,9a-tetraazabenzo[cd]azulene-7(6H)-one], the IC50 at ATR kinase (setting [1]) was below 10 nM; with LoVo cells (setting [2]) it was 100 to 1000 nM.
For `CCC(C)N1C(=O)CCn2nc(-c3cc[nH]n3)c3nc(N4CCOC[C@H]4C)cc1c32` (stereo partly drawn) [Compound 98, 6-(sec-butyl)-4-((R)-3-methylmorpholinyl)-2-(1H-pyrazol-3-yl)-8,9-dihydro-1,3,6,9a-tetraazabenzo[cd]azulene-7(6H)-one], in that order: below 10 nM and below 100 nM.
Turning to `C[C@@H]1COCCN1c1cc2c3c(n1)c(-c1cc[nH]n1)nn3CCC(=O)N2Cc1cnn(C)c1` [Compound 99, (R)-6-((1-methyl-1H-pyrazol-4-yl)methyl)-4-(3-methylmorpholinyl)-2-(1H-pyrazol-3-yl)-8,9-dihydro-1,3,6,9a-tetraazabenzo[cd]azulene-7(6H)-one], the IC50 at ATR kinase (setting [1]) was 10 to 100 nM; in the test on LoVo cells (setting [2]), 100 to 1000 nM.
For `CC(C1CC1)N1C(=O)CCn2nc(-c3cc[nH]n3)c3nc(N4CCOC[C@H]4C)cc1c32` (stereo partly drawn) [Compound 100, 6-(1-cyclopropylethyl)-4-((R)-3-methylmorpholinyl)-2-(1H-pyrazol-3-yl)-8,9-dihydro-1,3,6,9a-tetraazabenzo[cd]azulene-7(6H)-one], in that order: 10 to 100 nM and 100 to 1000 nM.
For `C[C@@H]1COCCN1c1cc2c3c(n1)c(-c1cc[nH]n1)nn3CCC(=O)N2C1(C)COC1` [Compound 101, (R)-4-(3-methylmorpholinyl)-6-(3-methyloxetan-3-yl)-2-(1H-pyrazol-3-yl)-8,9-dihydro-1,3,6,9a-tetraazabenzo[cd]azulene-7(6H)-one], in that order: 10 to 100 nM and 100 to 1000 nM.
As for `C[C@@H]1COCCN1c1cc2c3c(n1)c(-c1cc[nH]n1)nn3CCC(=O)N2C1(C(F)F)CC1` [Compound 102, (R)-6-(1-(difluoromethyl)cyclopropyl)-4-(3-methylmorpholinyl)-2-(1H-pyrazol-3-yl)-8,9-dihydro-1,3,6,9a-tetraazabenzo[cd]azulene-7(6H)-one], the IC50 at ATR kinase (setting [1]) was below 10 nM; with LoVo cells (setting [2]), below 100 nM.
As for `C[C@@H]1COCCN1c1cc2c3c(n1)c(-c1cc[nH]n1)nn3CCC(=O)N2CC#CC(C)(C)O` [Compound 103, (R)-6-(4-hydroxy-4-methylpent-2-yn-1-yl)-4-(3-methylmorpholinyl)-2-(1H-pyrazol-3-yl)-8,9-dihydro-1,3,6,9a-tetraazabenzo[cd]azulene-7(6H)-one], the IC50 on ATR kinase (setting [1]) was in the range of 10 to 100 nM; in the test on LoVo cells (setting [2]), 100 to 1000 nM.
On the same counts, the results for `C[C@@H]1COCCN1c1cc2c3c(n1)c(-c1cc[nH]n1)nn3CCC(=O)N2C1(C#N)CC1` [Compound 105, (R)-1-(4-(3-methylmorpholinyl)-7-oxo-2-(1H-pyrazol-3-yl)-8,9-dihydro-1,3,6,9a-tetraazabenzo[cd]azulene-6(7H)-yl)cyclopropane-1-carbonitrile] are below 10 nM and below 100 nM.
For `C=CC(C)N1C(=O)CCn2nc(-c3cc[nH]n3)c3nc(N4CCOC[C@H]4C)cc1c32` (stereo partly drawn) [Compound 106, 6-(but-3-en-2-yl)-4-((R)-3-methylmorpholinyl)-2-(1H-pyrazol-3-yl)-8,9-dihydro-1,3,6,9a-tetraazabenzo[cd]azulene-7(6H)-one], in that order: below 10 nM and below 100 nM.
Turning to `COCC12CC(N3C(=O)CCn4nc(-c5cc[nH]n5)c5nc(N6CCOC[C@H]6C)cc3c54)(C1)C2` [Compound 107, (R)-6-(3-(methoxymethyl)bicyclo[1.1.1]pentan-1-yl)-4-(3-methylmorpholinyl)-2-(1H-pyrazol-3-yl)-8,9-dihydro-1,3,6,9a-tetraazabenzo[cd]azulene-7(6H)-one], the IC50 at ATR kinase (setting [1]) was below 10 nM; with LoVo cells (setting [2]) it was 100 to 1000 nM.
Turning to `C[C@@H]1COCCN1c1cc2c3c(n1)c(-c1cc[nH]n1)nn3CCC(=O)N2C1(C2CC2)CC1` [Compound 108, (R)-6-([1,1'-bis(cyclopropane)]-1-yl)-4-(3-methylmorpholinyl)-2-(1H-pyrazol-3-yl)-8,9-dihydro-1,3,6,9a-tetraazabenzo[cd]azulene-7(6H)-one], the IC50 at ATR kinase (ATR kinase IC50 (nM), 1 nM ATR kinase (Eurofins), 28°C for 3 hours, maximum concentration 1 µM, 10 concentrations) was below 10 nM; with LoVo cells (setting [2]) it was 100 to 1000 nM.
On to `C[C@@H]1COCCN1c1cc2c3c(n1)c(-c1cc[nH]n1)nn3CCC(=O)N2C1CC(F)(F)C1` [Compound 109, (R)-6-(3,3-difluorocyclobutyl)-4-(3-methylmorpholinyl)-2-(1H-pyrazol-3-yl)-8,9-dihydro-1,3,6,9a-tetraazabenzo[cd]azulene-7(6H)-one], for which the IC50 at ATR kinase (setting [1]) is 10 to 100 nM; with LoVo cells (setting [2]) it was 100 to 1000 nM.
Consider `C[C@@H]1COCCN1c1cc2c3c(n1)c(-c1cc[nH]n1)nn3CCC(=O)N2C12CC(C1)C2` [Compound 110, (R)-6-(bicyclo[1.1.1]pentan-1-yl)-4-(3-methylmorpholinyl)-2-(1H-pyrazol-3-yl)-8,9-dihydro-1,3,6,9a-tetraazabenzo[cd]azulene-7(6H)-one], for which the IC50 at ATR kinase (setting [1]) is below 10 nM; in the test with LoVo cells (setting [2]) it was below 100 nM.
For `C[C@@H]1COCCN1c1cc2c3c(n1)c(-c1cc[nH]n1)nn3CCC(=O)N2C1(CF)CC1` [Compound 112, (R)-6-(1-(fluoromethyl)cyclopropyl)-4-(3-methylmorpholinyl)-2-(1H-pyrazol-3-yl)-8,9-dihydro-1,3,6,9a-tetraazabenzo[cd]azulene-7(6H)-one], in that order: below 10 nM and below 100 nM.
For `COCC1(N2C(=O)CCn3nc(-c4cc[nH]n4)c4nc(N5CCOC[C@H]5C)cc2c43)CC1` [Compound 113, (R)-6-(1-(methoxymethyl)cyclopropyl)-4-(3-methylmorpholinyl)-2-(1H-pyrazol-3-yl)-8,9-dihydro-1,3,6,9a-tetraazabenzo[cd]azulene-7(6H)-one], in that order: 10 to 100 nM and 100 to 1000 nM.
On to `C[C@@H]1COCCN1c1cc2c3c(n1)c(-c1cc[nH]n1)nn3CCC(=O)N2C1(CO)CC1` [Compound 114, (R)-6-(1-(hydroxymethyl)cyclopropyl)-4-(3-methylmorpholinyl)-2-(1H-pyrazol-3-yl)-8,9-dihydro-1,3,6,9a-tetraazabenzo[cd]azulene-7(6H)-one], for which the IC50 was below 10 nM at ATR kinase (setting [1]) and 100 to 1000 nM in the test with LoVo cells (setting [2]).
Take `C[C@@H]1COCCN1c1cc2c3c(n1)c(-c1cc[nH]n1)nn3CCC(=O)N2CC12CC(F)(C1)C2` [Compound 115, (R)-6-((3-fluorobicyclo[1.1.1]pentan-1-yl)methyl)-4-(3-methylmorpholinyl)-2-(1H-pyrazol-3-yl)-8,9-dihydro-1,3,6,9a-tetraazabenzo[cd]azulene-7(6H)-one]: the IC50 is below 10 nM at ATR kinase (setting [1]) and below 100 nM in the test with LoVo cells (setting [2]).
Take `C[C@@H]1COCCN1c1cc2c3c(n1)c(-c1cc[nH]n1)nn3CCC(=O)N2CC1(C#N)CC1` [Compound 116, (R)-1-((4-(3-methylmorpholinyl)-7-oxo-2-(1H-pyrazol-3-yl)-8,9-dihydro-1,3,6,9a-tetraazabenzo[cd]azulene-6(7H)-yl)methyl)cyclopropane-1-carbonitrile]: the IC50 is 10 to 100 nM on ATR kinase (setting [1]) and 100 to 1000 nM in the test on LoVo cells (setting [2]).
In the case of `CC1Cn2nc(-c3cc[nH]n3)c3nc(N4CCOC[C@H]4C)cc(c32)N(C(C)C)C1=O` (stereo partly drawn) [Compound 119, 6-isopropyl-8-methyl-4-((R)-3-methylmorpholino)-2-(1H-pyrazol-3-yl)-8,9-dihydro-1,3,6,9a-tetraazabenzo[cd]azulene-7(6H)-one], the IC50 at ATR kinase (setting [3]) was 10 to 100 nM; in the test on LoVo cells (setting [4]), 100 to 1000 nM.
On the same counts, the results for `CC(C)N1CCCn2nc(-c3cc[nH]n3)c3nc(N4CCOC[C@H]4C)cc1c32` [Compound 120, (R)-4-(6-isopropyl-2-(1H-pyrazol-3-yl)-6,7,8,9-tetrahydro-1,3,6,9a-tetraazabenzo[cd]azulen-4-yl)-3-methylmorpholine] are 10 to 100 nM and 100 to 1000 nM.
For `C[C@@H]1COCCN1c1cc2c3c(n1)c(-c1cc[nH]n1)nn3CCCN2S(C)(=O)=O` [Compound 121, (R)-3-methyl-4-(6-(methylsulfonyl)-2-(1H-pyrazol-3-yl)-6,7,8,9-tetrahydro-1,3,6,9a-tetraazabenzo[cd]azulen-4-yl)morpholine], in that order: 10 to 100 nM and below 100 nM.
In the case of `C[C@@H]1COCCN1c1cc2c3c(n1)c(-c1cc[nH]n1)nn3CCCN2C1CC1` [Compound 122, (R)-4-(6-cyclopropyl-2-(1H-pyrazol-3-yl)-6,7,8,9-tetrahydro-1,3,6,9a-tetraazabenzo[cd]azulen-4-yl)-3-methylmorpholine], the IC50 on ATR kinase (setting [3]) is 10 to 100 nM; with LoVo cells (setting [4]) it was 100 to 1000 nM.
Take `C[C@@H]1COCCN1c1cc2c3c(n1)c(-c1cc[nH]n1)nn3CCCN2CC(C)(C)O` [Compound 123, (R)-2-methyl-1-(4-(3-methylmorpholinyl)-2-(1H-pyrazol-3-yl)-8,9-dihydro-1,3,6,9a-tetraazabenzo[cd]azulene-6(7H)-yl)propan-2-ol]: the IC50 at ATR kinase (setting [1]) lay within 10 to 100 nM; with LoVo cells (setting [2]) it was 100 to 1000 nM.
